Results as given in patent publication US20230093099A1, “COMPOUNDS AND METHODS OF TREATING CANCERS” (CULLGEN (SHANGHAI), INC., priority 2019, published 2023).

test system: RS4;11 cells; assay: Cell viability assay (CellTiter-Glo) in RS4;11 cells; format: cell-based; conditions: Homo sapiens, 72 h; RS4;11 ALL cells treated for three days; read-out: cell viability inhibition IC50
How it was run: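 RS4;11 cells seeded at 5000 per well, exposed for 3 days to 8- or 12-point 3-fold serial dilutions. Viability read by CellTiter-Glo luminescence; IC50 fitted by nonlinear least-squares regression.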

SMILES | IC50
CS(=O)(=O)c1ccc(-c2cccc3nc(Nc4ccc(N5CCN(C(=O)CCNc6ccc7c(c6)C(=O)N(C6CCC(=O)NC6=O)C7=O)CC5)cc4)nn23)cc1 (centres unmarked) [JA-202] | < 0.1 µM

same assay, conditions: Homo sapiens, 72 h; RS4;11 cells; cell viability, 3 days, CellTiter-Glo; read-out: IC50

SMILES | IC50
Cc1ncsc1-c1ccc(CNC(=O)[C@@H]2C[C@@H](O)CN2C(=O)[C@@H](NC(=O)CNC(=O)CN2CCC(n3cc(-c4cnc5cccc(-c6cc(F)c(CN7CCOCC7)c(F)c6)c5n4)cn3)CC2)C(C)(C)C)cc1 [JA-158, (2S,4R)-1-((S)-2-(2-(2-(4-(4-(8-(3,5-Difluoro-4-(morpholinomethyl)phenyl)quinoxalin-2-yl)-1H-pyrazol-1-yl)piperidin-1-yl)acetamido)acetamido)-3,3-dimethylbutanoyl)-4-hydroxy-N-(4-(4-methylthiazol-5-yl)benzyl)pyrrolidine-2-carboxamide] | > 10 µM
Cn1c(=O)n(C2CCC(=O)NC2=O)c2ccc(NCCCCC(=O)N3CCC(n4cc(-c5cnc6cccc(-c7cc(F)c(CN8CCOCC8)c(F)c7)c6n5)cn4)CC3)cc21 (centres unmarked) [JA-287, 3-(5-((5-(4-(4-(8-(3,5-Difluoro-4-(morpholinomethyl)phenyl)quinoxalin-2-yl)-1H-pyrazol-1-yl)piperidin-1-yl)-5-oxopentyl)amino)-3-methyl-2-oxo-2,3-dihydro-1H-benzo[d]imidazol-1-yl)piperidine-2,6-dione] | > 0.5 µM
O=C(CN1CCC(n2cc(-c3cnc4cccc(-c5cc(F)c(CN6CCOCC6)c(F)c5)c4n3)cn2)CC1)NCCNc1ccc2c(c1)C(=O)N(C1CCC(=O)NC1=O)C2=O (centres unmarked) [JA-174, 2-(4-(4-(8-(3,5-Difluoro-4-(morpholinomethyl)phenyl)quinoxalin-2-yl)-1H-pyrazol-1-yl)piperidin-1-yl)-N-(2-((2-(2,6-dioxopiperidin-3-yl)-1,3-dioxoisoindolin-5-yl)amino)ethyl)acetamide] | 2.45 µM
Cn1c(=O)n(C2CCC(=O)NC2=O)c2cccc(NCCCCCC(=O)N3CCN(c4ccc(Nc5nc6cccc(-c7ccc(S(C)(=O)=O)cc7)n6n5)cc4)CC3)c21 (centres unmarked) [JA-284, 3-(3-Methyl-4-((6-(4-(4-((5-(4-(methylsulfonyl)phenyl)-[1,2,4]triazolo[1,5-a]pyridin-2-yl)amino)phenyl)piperazin-1-yl)-6-oxohexyl)amino)-2-oxo-2,3-dihydro-1H-benzo[d]imidazol-1-yl)piperidine-2,6-dione] | > 0.5 µM
Cc1ncsc1-c1ccc(CNC(=O)[C@@H]2C[C@@H](O)CN2C(=O)[C@@H](NC(=O)COCCOCC(=O)N2CCN(c3ccc(Nc4nc5cccc(-c6ccc(S(C)(=O)=O)cc6)n5n4)cc3)CC2)C(C)(C)C)cc1 [JA-073, (2S,4R)-1-((S)-3,3-Dimethyl-2-(2-(2-(2-(4-(4-((5-(4-(methylsulfonyl)phenyl)-[1,2,4]triazolo[1,5-a]pyridin-2-yl)amino)phenyl)piperazin-1-yl)-2-oxoethoxy)ethoxy)acetamido)butanoyl)-4-hydroxy-N-(4-(4-methylthiazol-5-yl)benzyl)pyrrolidine-2-carboxamide] | 4.59 µM
CS(=O)(=O)c1ccc(-c2cccc3nc(Nc4ccc(N5CCN(C(=O)CCNc6ccc7c(c6)C(=O)N(C6CCC(=O)NC6=O)C7=O)CC5)cc4)nn23)cc1 (centres unmarked) [JA-202] | 0.108 µM
CS(=O)(=O)c1ccc(-c2cccc3nc(Nc4ccc(N5CCN(C(=O)CCCCCCCNc6cccc7c6C(=O)N(C6CCC(=O)NC6=O)C7=O)CC5)cc4)nn23)cc1 (centres unmarked) [JA-084, 2-(2,6-Dioxo-piperidin-3-yl)-4-[8-(4-{4-[5-(4-methanesulfonyl-phenyl)-[1,2,4]triazolo[1,5-a]pyridin-2-ylamino]-phenyl}-piperazin-1-yl)-8-oxo-octylamino]-isoindole-1,3-dione] | > 10 µM
O=C1CCC(n2c(=O)n(CCCCCC(=O)N3CCC(n4cc(-c5cnc6cccc(-c7cc(F)c(CN8CCOCC8)c(F)c7)c6n5)cn4)CC3)c3ccccc32)C(=O)N1 (centres unmarked) [JA-278, 3-(3-(6-(4-(4-(8-(3,5-Difluoro-4-(morpholinomethyl)phenyl)quinoxalin-2-yl)-1H-pyrazol-1-yl)piperidin-1-yl)-6-oxohexyl)-2-oxo-2,3-dihydro-1H-benzo[d]imidazol-1-yl)piperidine-2,6-dione] | > 0.5 µM
Cc1ncsc1-c1ccc(CNC(=O)[C@@H]2C[C@@H](O)CN2C(=O)[C@@H](NC(=O)CCOCCOCCC(=O)N2CCC(n3cc(-c4cnc5cccc(-c6cc(F)c(CN7CCOCC7)c(F)c6)c5n4)cn3)CC2)C(C)(C)C)cc1 [JA-056, (2S,4R)-1-[(2S)-2-[3-[2-[3-[4-[4-[8-[3,5-Difluoro-4-(morpholinomethyl)phenyl]quinoxalin-2-yl]pyrazol-1-yl]-1-piperidyl]-3-oxo-propoxy]ethoxy]propanoylamino]-3,3-dimethyl-butanoyl]-4-hydroxy-N-[[4-(4-methylthiazol-5-yl)phenyl]methyl]pyrrolidine-2-carboxamide] | > 10 µM
Cc1cnc(Nc2ccc(N3CCN(C(=O)CCCCCCCNc4cccc5c4C(=O)N(C4CCC(=O)NC4=O)C5=O)CC3)cc2)nc1Nc1cccc(S(=O)(=O)NC(C)(C)C)c1 (centres unmarked) [JA-016, N-(tert-Butyl)-3-((2-((4-(4-(8-((2-(2,6-dioxopiperidin-3-yl)-1,3-dioxoisoindolin-4-yl)amino)octanoyl)piperazin-1-yl)phenyl)amino)-5-methylpyrimidin-4-yl)amino)benzenesulfonamide] | > 10 µM
Cc1cnc(Nc2ccc(N3CCN(C(=O)CCCCCC(=O)N[C@H](C(=O)N4C[C@H](O)C[C@H]4C(=O)NCc4ccc(-c5scnc5C)cc4)C(C)(C)C)CC3)cc2)nc1Nc1cccc(S(=O)(=O)NC(C)(C)C)c1 [JA-025, (2S,4R)-1-((S)-2-(7-(4-(4-((4-((3-(N-(tert-Butyl)sulfamoyl)phenyl)amino)-5-methylpyrimidin-2-yl)amino)phenyl)piperazin-1-yl)-7-oxoheptanamido)-3,3-dimethylbutanoyl)-4-hydroxy-N-(4-(4-methylthiazol-5-yl)benzyl)pyrrolidine-2-carboxamide] | > 10 µM
Cc1ncsc1-c1ccc(CNC(=O)[C@@H]2C[C@@H](O)CN2C(=O)[C@@H](NC(=O)CCCCCC(=O)N2CCN(c3ccc(Nc4nc5cccc(-c6ccc(S(C)(=O)=O)cc6)n5n4)cc3)CC2)C(C)(C)C)cc1 [JA-076, (2S,4R)-1-((S)-3,3-Dimethyl-2-(7-(4-(4-((5-(4-(methylsulfonyl)phenyl)-[1,2,4]triazolo[1,5-a]pyridin-2-yl)amino)phenyl)piperazin-1-yl)-7-oxoheptanamido)butanoyl)-4-hydroxy-N-(4-(4-methylthiazol-5-yl)benzyl)pyrrolidine-2-carboxamide] | > 10 µM
Cc1ncsc1-c1ccc(CNC(=O)[C@@H]2C[C@@H](O)CN2C(=O)[C@@H](NC(=O)CCOCCOCCOCCC(=O)N2CCC(n3cc(-c4cnc5cccc(-c6cc(F)c(CN7CCOCC7)c(F)c6)c5n4)cn3)CC2)C(C)(C)C)cc1 [JA-050, (2S,4R)-1-[(2S)-2-[3-[2-[2-[3-[4-[4-[8-[3,5-Difluoro-4-(morpholinomethyl)phenyl]quinoxalin-2-yl]pyrazol-1-yl]-1-piperidyl]-3-oxo-propoxy]ethoxy]ethoxy]propanoylamino]-3,3-dimethyl-butanoyl]-4-hydroxy-N-[[4-(4-methylthiazol-5-yl)phenyl]methyl]pyrrolidine-2-carboxamide] | > 10 µM
